Test results taken from US20080114027A1, “Method for treating delirium” (priority 2006, published 2008).

How the values were obtained:
PDE-11 = PDE-11 (Homo sapiens, UniProt Q9HCR9); conditions: cited from earlier work
PDE-4 = conditions: cited from earlier work
PDE-3 = conditions: cited from earlier work
rat tail-flick model = experiment: Anti-nociceptive pain testing, rat tail-flick model; format: in vivo, Male Sprague-Dawley (CD) rats; conditions: 7.5 mg/kg i.p., magnitude and duration similar to morphine 1.3 mg/kg s.c., FIG. 1
PDE-10 = PDE-10 (Homo sapiens, UniProt Q9Y233); conditions: cited from earlier work
Sequence of PDE-10 (Q9Y233 whole entry): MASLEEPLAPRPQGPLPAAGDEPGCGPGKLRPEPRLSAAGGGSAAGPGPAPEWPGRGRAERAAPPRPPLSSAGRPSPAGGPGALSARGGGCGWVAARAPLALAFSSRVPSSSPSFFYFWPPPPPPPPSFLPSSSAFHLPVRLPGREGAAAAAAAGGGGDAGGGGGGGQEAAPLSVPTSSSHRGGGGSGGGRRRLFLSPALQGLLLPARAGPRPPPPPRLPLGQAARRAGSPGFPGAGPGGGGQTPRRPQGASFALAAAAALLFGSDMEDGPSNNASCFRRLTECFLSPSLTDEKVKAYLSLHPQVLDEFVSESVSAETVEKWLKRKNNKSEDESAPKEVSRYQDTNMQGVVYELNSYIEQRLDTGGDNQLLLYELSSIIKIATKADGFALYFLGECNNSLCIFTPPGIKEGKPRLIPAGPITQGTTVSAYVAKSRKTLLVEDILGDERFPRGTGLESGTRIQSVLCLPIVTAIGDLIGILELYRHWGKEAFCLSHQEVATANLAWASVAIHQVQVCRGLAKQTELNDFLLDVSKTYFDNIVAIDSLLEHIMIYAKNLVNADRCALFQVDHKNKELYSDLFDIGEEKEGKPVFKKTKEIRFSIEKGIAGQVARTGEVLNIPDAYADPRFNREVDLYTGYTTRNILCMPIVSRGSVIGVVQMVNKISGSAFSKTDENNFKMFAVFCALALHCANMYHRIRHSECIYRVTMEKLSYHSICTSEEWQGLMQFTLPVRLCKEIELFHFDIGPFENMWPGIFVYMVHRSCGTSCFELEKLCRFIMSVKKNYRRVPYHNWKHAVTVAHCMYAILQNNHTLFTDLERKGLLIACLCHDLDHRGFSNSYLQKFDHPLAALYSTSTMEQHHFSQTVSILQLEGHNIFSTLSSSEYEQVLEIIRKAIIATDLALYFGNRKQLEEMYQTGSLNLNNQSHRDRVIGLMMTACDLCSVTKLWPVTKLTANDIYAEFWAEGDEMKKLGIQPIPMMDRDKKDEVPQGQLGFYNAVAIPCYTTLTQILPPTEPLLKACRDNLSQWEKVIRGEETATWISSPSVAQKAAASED

Sequence of PDE-11 (Q9HCR9 whole entry): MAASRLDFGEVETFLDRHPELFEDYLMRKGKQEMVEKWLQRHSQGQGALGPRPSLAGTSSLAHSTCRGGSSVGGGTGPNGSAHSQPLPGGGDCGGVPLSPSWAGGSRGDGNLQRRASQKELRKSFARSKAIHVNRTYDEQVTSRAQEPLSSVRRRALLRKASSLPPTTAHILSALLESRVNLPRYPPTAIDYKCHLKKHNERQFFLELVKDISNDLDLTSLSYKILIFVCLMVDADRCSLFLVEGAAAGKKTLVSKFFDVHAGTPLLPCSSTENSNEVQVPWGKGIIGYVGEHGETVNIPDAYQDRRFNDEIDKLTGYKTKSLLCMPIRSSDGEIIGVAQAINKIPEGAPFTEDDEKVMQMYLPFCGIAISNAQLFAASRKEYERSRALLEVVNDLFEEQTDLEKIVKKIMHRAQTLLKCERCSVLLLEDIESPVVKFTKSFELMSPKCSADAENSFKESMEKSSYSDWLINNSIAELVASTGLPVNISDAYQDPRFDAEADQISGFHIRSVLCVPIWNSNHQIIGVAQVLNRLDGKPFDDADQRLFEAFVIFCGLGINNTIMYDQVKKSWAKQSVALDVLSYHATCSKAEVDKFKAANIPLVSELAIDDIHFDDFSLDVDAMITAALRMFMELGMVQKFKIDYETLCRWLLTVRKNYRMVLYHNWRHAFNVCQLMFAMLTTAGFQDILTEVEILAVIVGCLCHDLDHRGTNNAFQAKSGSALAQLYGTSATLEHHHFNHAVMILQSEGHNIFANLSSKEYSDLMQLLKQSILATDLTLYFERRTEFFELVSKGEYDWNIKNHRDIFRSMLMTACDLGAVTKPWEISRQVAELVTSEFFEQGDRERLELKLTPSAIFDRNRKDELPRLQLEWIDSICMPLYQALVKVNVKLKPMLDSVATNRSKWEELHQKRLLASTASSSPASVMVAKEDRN

CC(C)C(=O)c1c(C(C)C)nn2ccccc12 [ibudilast, 2-methyl-1-(2-(1-methylethyl)pyrazolo(1,5-a)pyridin-3-yl)1-propanone]
PDE inhibitory activity (PDE-11): most active
PDE inhibitory activity (PDE-4): most active
PDE inhibitory activity (PDE-3): most active
acute analgesic efficacy (tail-flick latency time) (rat tail-flick model): increased the latency time
PDE inhibitory activity (PDE-10): most active
